What is called Kd is the concentration at which binding is half-saturated. Higher therefore signals a looser complex.

Calls of active or inactive are those of the source. The calls are words filed in the database; no cut-off is given here.

Activity and Kd data for six compounds are collected here from ChEMBL document CHEMBL4602734, “Hybrid Screening Approach for Very Small Fragments: X-ray and Computational Screening on FKBP51” (J Med Chem, 2020).

The target of test [1] is T1, Peptidyl-prolyl cis-trans isomerase FKBP5 (Homo sapiens) (UniProt Q13451).
T1 sequence (whole entry): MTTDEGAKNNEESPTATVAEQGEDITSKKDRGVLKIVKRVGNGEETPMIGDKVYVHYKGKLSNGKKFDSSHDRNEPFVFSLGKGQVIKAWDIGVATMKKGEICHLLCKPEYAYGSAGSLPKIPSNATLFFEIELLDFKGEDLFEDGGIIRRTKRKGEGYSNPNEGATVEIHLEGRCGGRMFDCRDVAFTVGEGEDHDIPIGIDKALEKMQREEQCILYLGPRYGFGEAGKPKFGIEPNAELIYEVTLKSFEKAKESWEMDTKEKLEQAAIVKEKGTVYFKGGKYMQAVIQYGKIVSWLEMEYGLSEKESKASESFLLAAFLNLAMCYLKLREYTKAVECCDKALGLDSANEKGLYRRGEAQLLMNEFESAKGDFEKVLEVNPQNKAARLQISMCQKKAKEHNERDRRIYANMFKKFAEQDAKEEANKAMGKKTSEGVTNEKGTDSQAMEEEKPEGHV
In words: Binding affinity to 15N-labeled FKBP51 (1 to 140 residues) (unknown origin) expressed in Escherichia coli OD2N assessed as induction of chemical shift perturbations by two-dimensional 1H/15N HSQC NMR spectroscopy.

Test [2] addresses T1, Peptidyl-prolyl cis-trans isomerase FKBP5 (Homo sapiens). In words: Binding affinity to 15N-labeled FKBP51 (1 to 140 residues) (unknown origin) expressed in Escherichia coli OD2N assessed as induction of chemical shift perturbations at Ile87 residues by two-dimensional 1H/15N HSQC NMR spectroscopy.
The target of test [3] is T2, Peptidyl-prolyl cis-trans isomerase FKBP5 (Homo sapiens, UniProt Q13451).
T2 sequence (Q13451 whole entry): T1 sequence (whole entry)
The test can be described thus: Binding affinity to 15N-labeled FKBP51 (1 to 140 residues) (unknown origin) expressed in Escherichia coli OD2N by two-dimensional 1H/15N HSQC NMR spectroscopy.

The target of test [4] is T1, Peptidyl-prolyl cis-trans isomerase FKBP5 (Homo sapiens). The test can be described thus: Binding affinity to 15N-labeled FKBP51 (1 to 140 residues) (unknown origin) expressed in Escherichia coli OD2N assessed as induction of chemical shift perturbations at Leu81, Gly82, Gln85, Ile87, Ala89, Trp90, Asp91, Met97, and Glu110 residues by two-dimensional 1H/15N HSQC NMR spectroscopy.

For `NC(=O)c1cccnc1`, the outcome in test [1] was inactive.

On to `c1c[nH]cn1` [IMIDAZOLE], for which the outcome in test [2] was Active. The Kd in test [3] was determined as 4.4 mM.

`Cc1c[nH]cn1`: the outcome in test [2] was Active. Moreover, binding in test [3] was put at a Kd of 2.9 mM.

Regarding `O=C1CNC(=O)N1`, the outcome in test [1] was inactive.

With `Oc1ccccn1`, the result in test [2] was Active. For the same compound, the Kd in test [3] amounted to 1.3 mM.

Turning to `O=C1CCCCN1`, the result in test [4] was Active. In addition, the dissociation constant (Kd) in test [3] was 2.8 mM.
